Experimental data: patent US20250134891A1, “USE OF SOS1 INHIBITORS WITH MTOR INHIBITORS TO TREAT CANCERS” (Revolution Medicines, Inc., priority 2021, published 2025)

Assays:
[1] = system: murine pancreatic ductal adenocarcinoma PAN02 PTPN11^G503V; assay: Tumor growth in vivo, PAN02 PTPN11^G503V syngeneic model; design: species or system mouse; settings: single agent
Description: The combinatorial effects of Compound SOS1-(C) with RM-006 (also known as RMC-6272) on tumor cell growth in vivo were evaluated in the murine pancreatic ductal adenocarcinoma PAN02 PTPN11^G503V syngeneic model using female C57BL/6J mice (6-7 weeks old). Mice were implanted with PAN02 tumor cells in PBS (5×10^6 cells/mouse) subcutaneously in the flank. Once tumors reached an average size of ˜145 mm^3, mice were randomized to treatment groups to start the administration of test articles or control. SOS1-(C) treatment was administered daily by oral gavage and RM-006 was administered weekly by intra-peritoneal injection. Body weight and tumor volumes (using calipers) were measured twice weekly until study endpoint. Regressions (R) are defined as decrease of 10% or more from initial tumor volume.

[2] = system: LN229 human glioblastoma PTPN11^A72S/WT; assay: Tumor growth in vivo, LN229 PTPN11^A72S/WT glioblastoma CDX model; settings: single agent; 3 mg/kg IP weekly; athymic nude mice
Description: The combinatorial effects of Compound SOS1-(C) with RM-006 (also known as RMC-6272) on tumor cell growth in a human model of PTPN11-mutant glioblastoma, LN229 PTPN11^A72S/WT. 6-7 week athymic nude mice were implanted with LN229 in 50% matrigel (10×10^6 cells/mouse) subcutaneously in the flank. Once tumors reached an average size of 200 mm^3, mice were randomized into treatment groups (n=10/group) to start the administration of test articles or control. SOS1-(C) treatment was administered daily by oral gavage and RM-006 was administered weekly by intra-peritoneal injection. Body weight and tumor volume (using calipers) was measured twice weekly until study endpoint.

For CO[C@H]1C[C@@H]2CC[C@@H](C)[C@@](O)(O2)C(=O)C(=O)N2CCCC[C@H]2C(=O)O[C@H]([C@H](C)C[C@@H]2CC[C@@H](OC(=O)NCCOCCOCCOCCOCCOCCOCCOCCOCCC(=O)NCCS(=O)(=O)c3ccc(C(=O)N4CCOc5ccc(-c6ccc(N)nc6)cc5C4)c(C)c3F)[C@H](OC)C2)C[C@@H](O)[C@H](C)/C=C(\C)[C@@H](O)[C@@H](OC)C(=O)[C@H](C)C[C@H](C)/C=C/C=CC=C1C [RM-006], the “tumor growth inhibition (TGI)” value ([1]; 3 mg/kg IP weekly, female C57BL/6J mice) was 11%, the “regressions (decrease of 10% or more from initial tumor volume)” value ([1]; any timepoint in this study) was “did not induce regressions” and the “tumor growth inhibition (TGI)” value [2] was 72%.
